# “Also recorded” adds a separate entry of the source.
# Columns and labels:
# Assay type in all cases: cell-based
# [1] = system: mouse liver cells (Hepa1-6 cell line); experiment: Ketone (β-hydroxybutyrate) production in mouse liver cells; conditions: for Effect of combining with fatty acid blend on βHb production vs sum of individual effects: with 100 μM K-one fatty acid blend; for Effect of combining with OA on βHb production vs sum of individual effects: 1 μM to 10 μM + 100 μM OA; for βHb production when combined with oleic acid vs OA alone: 1 μM to 10 μM test nutrient + 100 μM OA; for βHb production when combined with fatty acid blend (K-one) vs blend alone: 1 μM to 10 μM test nutrient + 100 μM fatty acid blend; for Ketone production in the absence of a ketogenic fat blend: 5 μM each, alone or in combination; for βHb production, provided alone: test nutrient alone at 1 μM, 5 μM and 10 μM, no OA or fat blend, 6 hours
# Method: An assay to measure ketone production in mouse liver cells (Hepa1-6 cell line) was used wherein cells were first grown to a monolayer (growth phase), then exposed to starvation to deplete cellular lipid stores and subsequently brought into a ketogenic phase wherein cells were cultured in presence of oleic acid or a ketogenic diet fat blend with or without the presence of one of C2 fatty acid, C4 fatty acid, C6 fatty acid, citric acid and nicotinamide riboside. The ketone body production was subsequently determined by measurement of beta-hydroxybutyrate in the cell culture medium according to the details set out below:
# Starvation phase: At the end of the growth phase the cells formed a monolayer. The medium was exchanged for DMEM containing 1 mM glucose and antibiotics (1% penicillin & streptomycin) but no FBS. The medium was further supplemented with L-carnitine (a required co-factor for the uptake of fatty acids into the mitochondria, where fatty acids are turned into ketones). The cells were incubated in this medium for 24 hours. During this time, the cells were vastly deprived of glucose, lipids and hormones contained in FBS, forcing them to consume and empty their lipid stores. […] Moreover, the starvation phase is thought to induce specific metabolic changes that maximize the production of ketones.
# Ketogenic phase: At the end of the starvation phase, the medium was exchanged for Krebs-Henseleit buffer (KHB) supplemented with the L-carnitine and the test nutrients (table 1, single fatty acids C2, C4, C6 and citrate, nicotinamide riboside in combination with oleic acid fatty acid blend).
# The fatty acid blend has a similar fatty acid composition as the one used in a ketogenic diet (K-one). The content of every fatty acid in the blend is given as the molar ratio to Oleic acid (OA), whose molar content is set to 1. Dilutions of this blend were used to determine the dose response curve in FIGS. 1B and 1D. C2 and C4 are not included in the blend.
# KHB is composed of salts and bicarbonate as a chemical buffer to maintain the osmotic pressure and acidity (pH) at physiological levels. Medium and long chain fatty acids are coupled to bovine serum albumin prior to the assay to make them soluble in KHB and allow their efficient uptake by the cells. The coupling is physiological since in humans, medium and long chain fatty acids are normally coupled to albumin for transport in the blood circulation. Short chain fatty acids (C2, C4) were not coupled to albumin in the assay as they are water-soluble and circulate freely in humans. The cells were incubated for 6 hours at 37° C. During this time they produce ketones from the test nutrients with little to no interference from other nutrients and secrete β-hydroxybutyrate (β) into the medium.
# β-Hb measurements: At the end of the ketogenic phase, the whole medium was collected and dried by vacuum centrifugation for 20 hours at 21° C. The dry pellet was resuspended in a small volume of assay buffer to yield a 10-20-fold higher β-Hb concentration than in the medium. The samples were deproteinized using spin columns to measure the free unbound fraction of β-Hb. […] The Fluorescence was measured on a fluorescence microplate reader and is directly proportional to the β-Hb concentration in the sample within a range of 0.1 μM to 50 μM β-Hb.
# [2] = system: NAD+ depleted mouse liver cells (Hepa1-6 cells); experiment: NAD+ replenishment of NAD+ depleted mouse liver cells under ketogenic diet-like conditions
# Text: A ketogenic diet treatment leads to great consumption of NAD+ and other metabolically relevant NAD+ derivatives such as NADP+ creating a state of NAD+ exhaustion. Therefore, it was hypothesized that nicotinamide riboside (NR) may replenish NAD+ and thus sustains ketone production more effectively in liver cells than other NAD+ precursors including nicotinamide (NAM), nicotinic acid (NA), Niacin (defined as the combination of NA and NAM) or the amino acid tryptophan (Trp). While NA and NAM have been commonly referred to as vitamin B3, NR is a recently discovered and naturally occurring vitamin B3 member. An assay was developed to measure NAD+ replenishment of NAD+ depleted mouse liver cells (Hepa1-6 cells) by NAD+ precursors under ketogenic diet-like conditions. In this assay, mouse liver cells were starved of glucose and depleted of NAD+ through incubation in a very low glucose (1 mM) medium free of vitamin B3, tryptophan (Trp) and FBS and supplemented with 10 nM of an NAD+ depleting drug called FK866. Thereafter, the cells were fed with NR or NAM or Niacin (combination of NAM and NA in a 1:1 molar ratio) or Trp to replenish NAD+. At the end of the supplementation phase, the cells were scraped and extracted using the NAD+ extraction buffer of the EnzyChrom™ NAD/NADH Assay Kit from BioAssay Systems. The NAD+ content of the cells was determined with the same kit following the manufacturer's manual. The NAD+ measurement is based on a lactate dehydrogenase reaction, in which NAD+ is reduced to NADH, which in turn reduces a formazan (MTT) reagent. The intensity of the reduced product colour, measured at 565 nm, is proportional to the NAD+ concentration in the sample. This assay is highly specific for NAD+ and has minimal interference (<1%) by NADP+ or NADPH.
# [3] = system: NAD+ depleted mouse liver cells; experiment: Ketone production of NAD+ depleted liver cells after NR replenishment; conditions: NR 10 μM, 150 μM and 1000 μM
# Method: To measure the impact of replenishing NAD+ in liver cells with NR on ketone production, mouse liver cells were nutrient-deprived in medium containing low (1 mM) glucose, no fetal bovine serum, and no NAD+ precursors in the form of vitamin B3 (Niacin, NA, NAM) or Trp, but supplemented with L-carnitine.
# Concomitantly the cells were treated with FK866. These conditions created ketogenic diet like nutrient conditions and depleted the cells of NAD+ After 18 hours of incubation, FK866 was removed from the medium and a concentration range of NR was added for the replenishment of NAD+. After 24 hours, the cells were switched to Krebs-Henseleit buffer (KHB) containing L-carnitine and a concentration range (1 μM to 100 μM) of oleic acid, a long chain fatty acid, for 6 hours to induce and measure the production and secretion of b-hydroxybutyrate (βHB) into the medium.
compound,measurement,setting,value
"O=C(O)CC(O)(CC(=O)O)C(=O)O [citrate, citric acid]",Increase of ketone production from the fat blend,[1]; citrate 200 μM to 1000 μM + 100 μM K-one fat blend,10-20%
same,"Ketone production, citrate alone","[1]; citrate alone, no fat blend",no ketones
same,Effect of combining with fatty acid blend on βHb production vs sum of individual effects,[1],clearly greater than the sum
"O=C(/C=C/c1cccnc1)NCCCCC1CCN(C(=O)c2ccccc2)CC1 [FK866, reference compound]",Depletion of NAD+ relative to baseline NAD+ content of untreated liver cells,[2]; 10 nM FK866,~70%
"CCCC(=O)O [C4, butyric acid]",Effect of combining with OA on βHb production vs sum of individual effects,[1],more than additive
same,βHb production when combined with oleic acid vs OA alone,[1],more βHb than providing 100 μM OA alone
same,βHb production when combined with fatty acid blend (K-one) vs blend alone,[1],more βHb than providing the 100 μM fatty acid blend alone
same,Ketone production in the absence of a ketogenic fat blend,[1],hardly any ketones
same,Production of ketones from fatty acid blend concentration range,[1]; fixed 10 μM C4 + 1 μM to 100 μM fatty acid blend vs blend without C4,increasingly enhanced the production of ketones
same,"βHb production, provided alone",[1],hardly yielded any βHb; also recorded: no βHb
same,Effect of combining with fatty acid blend on βHb production vs sum of individual effects,[1],more than additive
"CC(=O)O [C2, ethanoic acid]",Effect of combining with OA on βHb production vs sum of individual effects,[1],more than additive
same,βHb production when combined with oleic acid vs OA alone,[1],more βHb than 100 μM OA alone
same,βHb production when combined with fatty acid blend (K-one) vs blend alone,[1],slightly greater production of βHb
same,"βHb production, provided alone",[1],virtually no bHB; also recorded: no βHb
same,Effect of combining with fatty acid blend on βHb production vs sum of individual effects,[1],more than additive
"CCCCCCCC/C=C\CCCCCCCC(=O)O [OA, oleic acid, reference compound]",Concentration at which top-level production of ketones is achieved,"[1]; dose-response curve, substrate alone",100 µM
"NC(=O)c1ccc[n+]([C@@H]2O[C@H](CO)[C@@H](O)[C@H]2O)c1 [NR, nicotinamide riboside]",NAD+ content replenishment,"[2]; NAD+ depleted cells, within 24 hours of treatment",dose-dependently replenishes NAD+ content to and above this baseline
same,Increase of NAD+ content vs equimolar NAM or Niacin,[2]; high concentrations of 1 mM,significantly greater extent than equimolar amounts of NAM or Niacin
same,Increase of NAD+ content vs equimolar Niacin,[2]; lower concentrations below 150 μM,greater extent than equimolar amounts of Niacin
same,Top-level production of ketones,"[3]; NAD+ depleted cells, oleic acid 1 μM to 100 μM, 6 hours",increased the top-level production of ketones
same,NAD+ content,[3]; ketogenic diet like nutrient conditions,increased
"CCCCCC(=O)O [C6, caproic acid]",βHb production when combined with oleic acid vs OA alone,[1],potentiates the production of ketones
same,βHb production when combined with fatty acid blend (K-one) vs blend alone,[1],potentiates the production of ketones
same,Ketone production in the absence of a ketogenic fat blend,[1],hardly any ketones
same,Concentration above which the fatty acid starts to be turned into βHb (substrate),"[1]; dose-response curve 1 μM to 100 μM, alone",above 10 μM
same,Effect of combining with fatty acid blend on βHb production vs sum of individual effects,[1],more than additive

# From US20250017252A1, “Fatty acids for boostering ketogenic diet” (N.V. Nutricia, priority 2022, published 2025)
